Values of other authors, collected in patent publication US6803060B2, “Composition to boost libido” (priority 2000, dated 2004).

Columns and labels:
[1] = test system: corpus cavernosum; details: for erection after injection into the corpus cavernosum: injected directly into the corpus cavernosum with a hypodermic needle; for duration of erection after injection: intracavernosal injection, appropriate dose
[2] = test system: impotentia erectionis; details: buccal, 100 I.U. three times a day for 14 days
[3] = test system: male erectile dysfunction; details: alone or in combination with papaverine
[4] = test system: impotent men; details: ingestion

SMILES: CCN(CC)CCOC(=O)C(Cc1cccc2ccccc12)CC1CCCO1 (mixture of isomers) [naftidrofuryl]
- erection after injection into the corpus cavernosum [1]: caused erection

SMILES: CN(C)CCCN1c2ccccc2CCc2ccccc21 [imipramine]
- erection after injection into the corpus cavernosum [1]: caused erection

SMILES: CC[C@H](C)[C@@H]1NC(=O)[C@H](Cc2ccc(O)cc2)NC(=O)[C@@H](N)CSSC[C@@H](C(=O)N2CCC[C@H]2C(=O)N[C@@H](CC(C)C)C(=O)NCC(N)=O)NC(=O)[C@H](CC(N)=O)NC(=O)[C@H](CCC(N)=O)NC1=O [oxytocin]
- patients with improvement of impotentia erectionis [2]: 12 of the 16

SMILES: COc1ccc(Cc2nccc3cc(OC)c(OC)cc23)cc1OC [papaverine]
- erection after injection into the corpus cavernosum [1]: caused erection
- duration of erection after injection [1]: unrelenting erection lasting for hours

SMILES: CC(COc1ccccc1)N(CCCl)Cc1ccccc1 (stereo not shown) [phenoxybenzamine]
- erection after injection into the corpus cavernosum [1]: caused erection
- duration of erection after injection [1]: unrelenting erection lasting for hours

SMILES: Cc1ccc(N(CC2=NCCN2)c2cccc(O)c2)cc1 [phentolamine]
- erection after injection into the corpus cavernosum [1]: caused erection

SMILES: CCCCC[C@H](O)/C=C/[C@H]1[C@H](O)CC(=O)[C@@H]1CCCCCCC(=O)O [prostaglandin E1]
- erectile response [3]: improved erectile response

SMILES: CC(=O)Oc1cc(C(C)C)c(OCCN(C)C)cc1C [thymoxamine]
- erection after injection into the corpus cavernosum [1]: caused erection

SMILES: COc1ccc(CCN(C)CCCC(C#N)(c2ccc(OC)c(OC)c2)C(C)C)cc1OC (stereo not shown) [verapamil]
- erection after injection into the corpus cavernosum [1]: caused erection

SMILES: COC(=O)[C@@H]1[C@H]2C[C@H]3c4[nH]c5ccccc5c4CCN3C[C@@H]2CC[C@@H]1O [yohimbine]
- treated patients reporting complete satisfaction [4]: 5%
- subjective improvement in erectile ability ([4]; impotent men treated): 38%
